# Values quoted from earlier work, collected in patent US20240189234A1, “SILICON PARTICLES FOR DRUG DELIVERY” (NACAMED AS, priority 2021, published 2024).
# Columns and labels:
# [1] = oral
# [2] = calculated log P values from Foye's Principles of Medicinal Chemistry
SMILES,absolute bioavailability [1],log P [2]
CC1(C)S[C@@H]2[C@H](NC(=O)COc3ccccc3)C(=O)N2[C@H]1C(=O)O [phenoxymethylpenicillin],50%,
CCCCC(=O)N(Cc1ccc(-c2ccccc2-c2nnn[nH]2)cc1)[C@H](C(=O)O)C(C)C [valsartan],25%,
CC(C)NCC(O)COc1cccc2ccccc12 (stereo not shown) [propranolol],26%,
CC[C@H]1OC(=O)[C@H](C)[C@@H](O[C@H]2C[C@@](C)(OC)[C@@H](O)[C@H](C)O2)[C@H](C)[C@@H](O[C@@H]2O[C@H](C)C[C@H](N(C)C)[C@H]2O)[C@](C)(O)C[C@@H](C)CN(C)[C@H](C)[C@@H](O)[C@]1(C)O [azithromycin],40%,
CCOc1nc2cccc(C(=O)O)c2n1Cc1ccc(-c2ccccc2-c2nnn[nH]2)cc1 [candesartan],40%,
CCOC(=O)[C@H](CCc1ccccc1)N[C@@H](C)C(=O)N1CCC[C@H]1C(=O)O [enalapril],60%,3.25
COc1ccc([C@@H]2Sc3ccccc3N(CCN(C)C)C(=O)[C@@H]2OC(C)=O)cc1 [diltiazem],40%,4.73
CC(C)(C)C(=O)OCOC(=O)[C@@H]1N2C(=O)[C@@H](NC(=O)[C@H](N)c3ccccc3)[C@H]2SC1(C)C [pivampicillin],,3.88
CN1C[C@H](C(=O)N[C@]2(C)O[C@@]3(O)[C@@H]4CCCN4C(=O)[C@H](Cc4ccccc4)N3C2=O)C=C2c3cccc4[nH]cc(c34)C[C@H]21 [ergotamine],,7.37
CC(C(=O)O)c1ccc(-c2ccccc2)c(F)c1 (stereo not shown) [flurbiprofen],,3.66
O=C(O)c1cc(/N=N/c2ccc(S(=O)(=O)Nc3ccccn3)cc2)ccc1O [sulfasalazine],,3.05
COc1ccc2c(c1)N(C[C@H](C)CN(C)C)c1ccccc1S2 [methotrimeprazine],,4.94
C1CCC(C(CC2CCCCN2)C2CCCCC2)CC1 (stereo not shown) [perhexilene],,6.46
CN1CC[C@]23CCCC[C@H]2[C@H]1Cc1ccc(O)cc13 [leverphanol],,3.26
CCCCC1=NC2(CCCC2)C(=O)N1Cc1ccc(-c2ccccc2-c2nnn[nH]2)cc1 [irbesartan],,5.25
C[C@H]1[C@H]2Cc3ccc(O)cc3[C@]1(C)CCN2CC1CC1 [cyclazocine],,3.52
Cc1ccc(O)c([C@H](CCN(C(C)C)C(C)C)c2ccccc2)c1 [tolterodine],,5.23
CSc1ccc2c(c1)N(CCC1CCCCN1C)c1ccccc1S2 (stereo not shown) [thioridazine],,5.90
COC(=O)[C@H]1[C@H]2C[C@@H]3c4[nH]c5cc(OC)ccc5c4CCN3C[C@H]2C[C@@H](OC(=O)c2cc(OC)c(OC)c(OC)c2)[C@@H]1OC [reserpine],,3.65
C[C@@H]1[C@H](O)[C@@H](C)/C=C/C=C/C=C/C=C/C=C/C=C/C=C/[C@H](O[C@@H]2O[C@H](C)[C@@H](O)[C@H](N)[C@@H]2O)C[C@@H]2O[C@](O)(C[C@@H](O)C[C@@H](O)[C@H](O)CC[C@@H](O)C[C@@H](O)CC(=O)O[C@H]1C)C[C@H](O)[C@H]2C(=O)O [amphotericin B],very low,
O=C(CCCN1CC=C(n2c(=O)[nH]c3ccccc32)CC1)c1ccc(F)cc1 [droperidol],,3.10
CN1C[C@H](C(=O)N[C@]2(C)O[C@@]3(O)[C@@H]4CCCN4C(=O)[C@H](Cc4ccccc4)N3C2=O)C[C@@H]2c3cccc4[nH]cc(c34)C[C@H]21 [dihydroergotamine],,5.69
CC[C@]1(O)C[C@@H]2CN(CCc3c([nH]c4ccccc34)[C@@](C(=O)OC)(c3cc4c(cc3OC)N(C)[C@H]3[C@@](O)(C(=O)OC)[C@H](OC(C)=O)[C@]5(CC)C=CCN6CC[C@]43[C@@H]65)C2)C1 [vinblastine],,5.92
O=C(CCCN1CCC(O)(c2ccc(Cl)cc2)CC1)c1ccc(F)cc1 [haloperidol],,3.76
O=C1c2ccccc2C(=O)C1c1ccccc1 [phenindione],,3.19
CN(C)CCOC(c1ccccc1)c1ccc(Br)cc1 (stereo not shown) [bromodiphenhydramine],,4.03
